Here are results for three compounds from patent US20050119310A1, “Use of n-substituted-1,5-dideoxy-1,5-imino-d-glucitol compounds for treating hepatitis virus infections” (priority 2000, published 2005).

The subject of assay [1] is woodchuck hepatitis virus (WHV). Description: Woodchuck model, N-nonyl-DNJ monotherapy, total HBV DNA and immune precipitated HBV DNA (IPDNA). It counts as in vivo. Here is the method: Therefore, five groups of four animals each (all groups had both sexes, all but the control had two of each sex) were assigned to 0, 12.5, 25, 50, and 100 mg/kg/day with BID oral dosing. These were lab-reared wild animals. All animals were infected with woodchuck hepatitis virus (WHV) as neonates, and had been tested positive on serological tests for WHV surface antigen. Blood samples were drawn one week prior to dosing (−1 week), immediately before dosing (0 weeks), weekly during dosing (1, 2, 3, and 4 weeks), and after the end of dosing (5, 6, 8, and 10 weeks).
There are two measures of drug efficacy: reduction in total HBV DNA (measured by quantitative PCR), and reduction in HBV DNA from capsids with intact surface glycoproteins, which is the active form of the virus (measured by an ELISA-like immune precipitation assay followed by quantitative PCR).
Before models are fitted to the data, a log transform was applied because: 1) the variation in IPDNA increases with increasing IPDNA values; the log transformation gives values with a nearly constant variation, and 2) it is expected that drug effects will appear as a constant multiplier of the IPDNA level. Because there are zero values of IPDNA, a small value (about ½ of the smallest non-zero value) was added to all values before the log transform.
Two approaches were used to model the changes in slope to week with dose of N-nonyl-DNJ: a linear modeling approach and a nonlinear model. Both approaches assume that the (linear) rate of change of the Log(IPDNA) measure over the dosing period is the “right” measure to reflect the effect of the drug on the virus. Both approaches are fit in stages, and the first stage is common to both approaches. First, a simple straight line regression model is fit using weeks 0-4 to predict log(IPDNA+10) separately for each animal by run combination. In the second stage, the response variable is the slope fitted in the first stage.
For the linear approach, a model is fit with slope to week as the response where run is considered a block, dose has a significant effect (almost all of this effect is due to a slope to dose), and the relevant error for testing the effect of dose is the variation among animals treated alike (after the adjustment for the runs as blocks). This is similar to using the calibration data within each run to first adjust each run's data to a common virus DNA concentration; the difference is that here the data from the woodchucks are used for the run adjustment rather than only the calibration data.
For the nonlinear approach, a four parameter logistic model is fit with the slope to week as the response and the dose as the predictor. Again, run is considered a block, but because no run has all weeks, it is not possible to fully reflect the blocking in the nonlinear approach. […] The average maximum slope observed was 2.71 additional Log(IPDNA μg/mL)/week, or an increase of about 150%/week, the average minimum slope observed with N-nonyl-DNJ is 0.31 fewer Log(IPDNA μg/mL)/week), or about a decrease of about 25%/week. The slopes, the fitted model, the parameter estimates from the model, and the approximate standard errors for these parameters are all shown in FIG. 3. […] Whether in woodchucks or humans, the effective dose of both the N-alkyl-DNJ and nucleoside or nucleotide antiviral agent administered in combination therewith can be administered in two equal daily subdoses (i.e., B.I.D.).

In assay [2] the test system is hepatitis B virus in HepG 2.2.15 (2.2.15) cells. Description: IC-90 values used for the combostat method (earlier determinations). To be noted: HepG2.2.15, T. Block and G. Jacob, unpublished observation. In kind it is cell-based. Here is the method:
The anti-hepatitis B virus effect of (−)-2′-deoxy-3′-thiocytidine-5′-triphosphate (3TC) alone and in combination with N-nonyl-DNJ was determined according to Korba ((1996) Antiviral Research 29(1):49-51), using the “combostat” strategy (Comstat Program, Combostat Corp., Duluth, Minn.). The combostat method involves serially diluting the IC-90 of each compound. The IC-90 of N-nonyl-DNJ has been determined to be between 4 and 10 μg/ml (T. Block and G. Jacob, unpublished observation). The accepted IC-90 for 3TC in HepG 2.2.15 (2.2.15) cells is 300 nM to 500 nM (Doong et al. (1991) Proc. Natl. Acad. Sci. USA 88:8495-8499).

Another assay relates to Hepatitis B Virus. Description: Hepatitis B virus secretion from chronically HBV secreting HepG2.2.15 cells (preS1 immunoprecipitation / PCR). In kind it is cell-based. The settings on record: 3 days of incubation, control = 100%. Here is the method: The anti-hepatitis B virus activity and effect on cell viability of a number of different N-substituted-1,5-dideoxy-1,5-imino-D-glucitol compounds were assessed using an in vitro assay employing chronically hepatitis B virus secreting HepG2.2.15 cells. The method employed was essentially that described in Block et al. (1994) Proc. Natl. Acad. Sci. USA 91:2235-2239.

The mark [3] stands for this setting: woodchuck, weeks 0-4, with N-nonyl-DNJ.

Structures are written as SMILES.

Regarding `CCCCCCCCCN1C[C@H](O)[C@@H](O)[C@H](O)[C@H]1CO` [Compound 1, N-(n-nonyl)-1,5-dideoxy-1,5-imino-D-glucitol], the “effect on total HBV DNA measurements” value in assay [1] (woodchuck, 12.5-100 mg/kg/day BID oral, 4 weeks of dosing) was “no effect”. The “EC50, four parameter logistic model of slope of Log(IPDNA+10) to week versus dose” value in assay [1] (woodchuck, oral BID) worked out at 7.88 mg/kg/BID dose. Also, the “increase of IPDNA at average maximum slope” value in assay [1] (woodchuck, weeks 0-4) is recorded as “about 150 %/week”. The “average maximum slope observed, additional Log(IPDNA)/week” value in assay [1] (woodchuck, weeks 0-4, upper end of fitted model) was 2.71 Log(IPDNA μg/mL)/week. In assay [1] (setting [3]), the “average minimum slope observed, fewer Log(IPDNA)/week” value is 0.31 Log(IPDNA μg/mL)/week and the “decrease of IPDNA at average minimum slope” value was “about 25 %/week”. The “approximate effective monotherapy dose” value in assay [1] (woodchucks) was “about 16 mg/kg/day”. In assay [2], the IC90 (as a rule, the point of the concentration-response curve where the effect stands at 90%) is 4 to 10 µg/mL.
With `CCCCN1C[C@H](O)[C@@H](O)[C@H](O)[C@H]1CO` [NBDNJ, N-(n-butyl-)-1,5-dideoxy-1,5-imino-D-glucitol], the “Relative amount of HBV secreted, as a % of control” value in the assay on Hepatitis B Virus (concentration [200]) is given as 37.0 +/− 13 (n = 15) %; in the assay with Hepatitis B Virus (concentration [1000]), 3.2 +/− 5 (n = 15) %.
In the same order, the values of `CCC(CC)CN1C[C@H](O)[C@@H](O)[C@H](O)[C@H]1CO` [Compound 3, N-(2-ethylbutyl)-1,5-dideoxy-1,5-imino-D-glucitol] are 45.0 +/− 30 (n = 3) % and 5.0 +/− 20 (n = 3) %.
